Values joined by “and” are separate entries in the source; they are usually repeats but may differ in a detail not shown here. Identical values can stand only once. Toxic doses and inconclusive results are not listed. The calls were made as follows: active = survival T/C of 150% or more; inactive = T/C below 125% in these data.
Test system: BDF1 mice, P388 leukemia ip, median survival T/C
Assay: NCI In Vivo Anticancer Drug Screen. Data for tumor model P388 Leukemia (intraperitoneal) in B6D2F1 (BDF1) mice
Conditions: endpoint: median survival time, higher = longer survival
How it was run: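 Compound-treated tumour-bearing mice were compared with vehicle-treated controls. Survival was recorded, and the value is the treated-group measurement divided by the control-group measurement (T/C).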

[1] = dose: 25.0 mg/kg/injection, schedule: Q01DX009 (ip), vehicle: saline with Tween-80
[2] = dose: 50.0 mg/kg/injection, schedule: Q01DX009 (ip), vehicle: saline with Tween-80
[3] = dose: 100.0 mg/kg/injection, schedule: Q01DX009 (ip), vehicle: saline with Tween-80
[4] = dose: 200.0 mg/kg/injection, schedule: Q01DX009 (ip), vehicle: saline with Tween-80
[5] = dose: 100.0 mg/kg/injection, schedule: Q04DX003 (ip), vehicle: Klucel (hydroxypropylcellulose) (HPC)
[6] = dose: 200.0 mg/kg/injection, schedule: Q04DX003 (ip), vehicle: Klucel (hydroxypropylcellulose) (HPC)
[7] = dose: 400.0 mg/kg/injection, schedule: Q04DX003 (ip), vehicle: Klucel (hydroxypropylcellulose) (HPC)
[8] = dose: 400.0 mg/kg/injection, schedule: Q01DX009 (ip), vehicle: saline with Tween-80
[9] = dose: 25.0 mg/kg/injection, schedule: Q01DX009 (ip), vehicle: saline
[10] = dose: 100.0 mg/kg/injection, schedule: Q01DX009 (ip), vehicle: saline

Measured: T/C

CC(=O)OC(C)(C)/C=C/C(=O)[C@](C)(O)[C@H]1[C@H](O)C[C@@]2(C)[C@@H]3CC=C4[C@@H](C[C@H](O)C(=O)C4(C)C)[C@]3(C)C(=O)C[C@]12C
inactive: dose: 0.07 mg/kg/injection, schedule: Q01DX009 (ip), vehicle: saline 95 % of control | dose: 0.09 mg/kg/injection, schedule: Q04DX003 (ip), vehicle: saline 100 % of control | dose: 0.12 mg/kg/injection, schedule: Q01DX009 (ip), vehicle: saline 115 % of control | dose: 0.18 mg/kg/injection, schedule: Q01DX009 (ip), vehicle: saline 105 % of control | dose: 0.18 mg/kg/injection, schedule: Q01DX010 (ip), vehicle: carboxymethylcellulose (CMC) 120 % of control | dose: 0.18 mg/kg/injection, schedule: Q04DX003 (ip), vehicle: saline 104 % of control | dose: 0.25 mg/kg/injection, schedule: Q01DX010 (ip), vehicle: carboxymethylcellulose (CMC) 113 % of control | dose: 0.37 mg/kg/injection, schedule: Q01DX010 (ip), vehicle: carboxymethylcellulose (CMC) 100 % of control | dose: 0.5 mg/kg/injection, schedule: Q01DX010 (ip), vehicle: carboxymethylcellulose (CMC) 118 % of control | dose: 0.75 mg/kg/injection, schedule: Q01DX010 (ip), vehicle: carboxymethylcellulose (CMC) 115 % of control | dose: 1.5 mg/kg/injection, schedule: Q01DX010 (ip), vehicle: carboxymethylcellulose (CMC) 115 % of control | dose: 132.0 micrograms/kg/injection, schedule: Q01DX009 (ip), vehicle: saline 112 % of control | dose: 198.0 micrograms/kg/injection, schedule: Q01DX009 (ip), vehicle: saline 104 % of control

OC1CCCC2CCCNC12 (stereo unspecified) (tested in a mixture with another compound)
inactive: [1] 88 % of control | [2] 103 % of control | [3] 100 % of control

O=C1OC(O)(c2ccccc2)C(c2ccccc2)=C1c1ccccc1 (stereo unspecified)
inactive: [2] 119 % of control | [3] 110 % of control | [4] 108 % of control

Cc1n[nH]c(=O)c2c3ccccc3nn12
inactive: dose: 100.0 mg/kg/injection, schedule: Q04DX002 (ip), vehicle: saline with Tween-80 103 % of control | dose: 200.0 mg/kg/injection, schedule: Q04DX002 (ip), vehicle: saline with Tween-80 110 % of control | dose: 400.0 mg/kg/injection, schedule: Q04DX002 (ip), vehicle: saline with Tween-80 107 % of control

CC(=O)C1=C(O)C2C3c4c[nH]c5cccc(c45)CC3C(C)(C)N2C1=O (stereo unspecified)
inactive: dose: 0.5 mg/kg/injection, schedule: Q01DX010 (ip), vehicle: saline 100 % of control | dose: 1.0 mg/kg/injection, schedule: Q01DX010 (ip), vehicle: saline 100 % of control | dose: 2.0 mg/kg/injection, schedule: Q01DX010 (ip), vehicle: saline 100 % of control | dose: 4.0 mg/kg/injection, schedule: Q01DX010 (ip), vehicle: saline 110 % of control

C[C@]12CC[C@@H]3c4ccc(O)cc4CC[C@H]3[C@@H]1CCC(=O)O2
inactive: dose: 100.0 mg/kg/injection, schedule: Q01DX009 (ip), vehicle: Klucel (hydroxypropylcellulose) (HPC) 91 % of control | [5] 104 % of control | dose: 200.0 mg/kg/injection, schedule: Q01DX009 (ip), vehicle: Klucel (hydroxypropylcellulose) (HPC) 91 % of control | [6] 90 % of control | [7] 100 % of control

C/C=C(/Cl)c1c(C)cc(C)c(CC(=O)O)c1C
inactive: [5] 87 % of control | [6] 95 % of control | [7] 95 % of control

CC(=O)Oc1c(Br)cc(Br)cc1-c1ccccc1
inactive: [2] 92 % of control | [3] 92 % of control | [4] 92 % of control | [8] 90 % of control

C=CCCCCCCCCC(=O)NCCN1CCOCC1
inactive: [2] 104 % of control | [3] 100 % of control

C=CCCC(=O)OC(C)(C)C
inactive: dose: 12.5 mg/kg/injection, schedule: Q01DX009 (ip), vehicle: water 103 % of control | [9] 109 % of control | dose: 25.0 mg/kg/injection, schedule: Q01DX009 (ip), vehicle: water 100 % of control | dose: 25.0 mg/kg/injection, schedule: Q04DX003 (ip), vehicle: water 106 % of control | dose: 50.0 mg/kg/injection, schedule: Q01DX009 (ip), vehicle: water 100 % of control | dose: 50.0 mg/kg/injection, schedule: Q04DX003 (ip), vehicle: water 116 % of control | [10] 109 % of control | dose: 100.0 mg/kg/injection, schedule: Q04DX003 (ip), vehicle: water 114 % of control | dose: 200.0 mg/kg/injection, schedule: Q04DX003 (ip), vehicle: water 98 % of control | dose: 400.0 mg/kg/injection, schedule: Q01DX009 (ip), vehicle: saline 100 % of control | dose: 400.0 mg/kg/injection, schedule: Q04DX003 (ip), vehicle: water 114 % of control

CCN(CC)C(=O)c1ccc(C(Cl)(Cl)Cl)cc1
inactive: dose: 12.5 mg/kg/injection, schedule: Q01DX009 (ip), vehicle: saline with Tween-80 102 % of control | [2] 100 % of control and 109 % of control and 120 % of control | [3] 100 % of control (2×) and 104 % of control | [5] 100 % of control | dose: 176.0 mg/kg/injection, schedule: Q04DX003 (ip), vehicle: saline sonified 104 % of control | [4] 112 % of control | [6] 95 % of control | dose: 264.0 mg/kg/injection, schedule: Q04DX003 (ip), vehicle: saline sonified 104 % of control | [8] 109 % of control

O=C(c1ccccc1)C1(Br)CCCCC1
inactive: dose: 75.0 mg/kg/injection, schedule: Q01DX009 (ip), vehicle: Klucel (hydroxypropylcellulose) (HPC) 104 % of control | dose: 100.0 mg/kg/injection, schedule: Q01DX001 (ip), vehicle: Klucel (hydroxypropylcellulose) (HPC) 100 % of control | [5] 109 % of control | dose: 150.0 mg/kg/injection, schedule: Q01DX009 (ip), vehicle: Klucel (hydroxypropylcellulose) (HPC) 95 % of control | dose: 200.0 mg/kg/injection, schedule: Q01DX001 (ip), vehicle: Klucel (hydroxypropylcellulose) (HPC) 104 % of control | [6] 104 % of control | dose: 300.0 mg/kg/injection, schedule: Q01DX009 (ip), vehicle: Klucel (hydroxypropylcellulose) (HPC) 86 % of control | dose: 400.0 mg/kg/injection, schedule: Q01DX001 (ip), vehicle: Klucel (hydroxypropylcellulose) (HPC) 104 % of control | [7] 109 % of control

COc1ccc2[nH]c(-c3ccccc3)c(-c3ccccc3)c2c1
inactive: [1] 95 % of control | [2] 90 % of control | [3] 90 % of control

Cc1cc(C)[s+]s1
inactive: dose: 0.78 mg/kg/injection, schedule: Q01DX009 (ip), vehicle: water 91 % of control | dose: 3.12 mg/kg/injection, schedule: Q01DX009 (ip), vehicle: water 97 % of control | dose: 6.25 mg/kg/injection, schedule: Q01DX009 (ip), vehicle: water 91 % of control

CC(O)C(F)(F)C(F)(F)C(F)(F)C(C)O (stereo unspecified)
inactive: dose: 50.0 mg/kg/injection, schedule: Q01DX009 (ip), vehicle: saline 90 % of control | [10] 104 % of control | dose: 100.0 mg/kg/injection, schedule: Q04DX003 (ip), vehicle: saline sonified 116 % of control | dose: 200.0 mg/kg/injection, schedule: Q01DX009 (ip), vehicle: saline 104 % of control | dose: 200.0 mg/kg/injection, schedule: Q04DX003 (ip), vehicle: saline sonified 94 % of control | dose: 400.0 mg/kg/injection, schedule: Q04DX003 (ip), vehicle: saline sonified 116 % of control

O=C(O)C(O)C(O)C(=O)O.O=C(O)C(O)C(O)C(=O)O.[O]=[V].[O]=[V] (stereo unspecified)
inactive: dose: 3.13 mg/kg/injection, schedule: Q01DX009 (ip), vehicle: saline 110 % of control | dose: 6.25 mg/kg/injection, schedule: Q01DX009 (ip), vehicle: saline 90 % of control and 100 % of control | dose: 6.25 mg/kg/injection, schedule: Q04DX003 (ip), vehicle: saline 100 % of control | dose: 12.5 mg/kg/injection, schedule: Q01DX009 (ip), vehicle: saline 95 % of control and 100 % of control | dose: 12.5 mg/kg/injection, schedule: Q04DX003 (ip), vehicle: saline 95 % of control and 100 % of control | [9] 90 % of control and 88 % of control | dose: 25.0 mg/kg/injection, schedule: Q04DX003 (ip), vehicle: saline 100 % of control

C(=N\N(c1ccccc1)c1ccccc1)/c1ccc(/C=N/N(c2ccccc2)c2ccccc2)cc1
inactive: [5] 100 % of control | [6] 100 % of control | [7] 95 % of control
